Results from patent US11318136B2, “Identification of granins as the pathogenic factor of alzheimer's disease and compositions and methods for inhibiting granin aggregation and treating alzheimer's disease” (priority 2018, dated 2022).
Each block holds one compound with its values, some of them ahead of it.

Experiments:
[1] = biological target: T1, chromogranin A (CGA) (Bos taurus, UniProt P05059); assay: Metal-induced chromogranin A aggregation (turbidity); type: biochemical, bovine; details: 1 μM compound, pH 7.4; for Fe2+-induced chromogranin A aggregation / Cu2+-induced chromogranin A aggregation: chromogranin A 0.005 mg/ml (0.1 μM); for Zn2+-induced chromogranin A aggregation: chromogranin A 0.005 mg/ml
T1 construct: from tissue; host or cells: secretory granules of bovine adrenal medulla
T1 sequence (P05059 19-449): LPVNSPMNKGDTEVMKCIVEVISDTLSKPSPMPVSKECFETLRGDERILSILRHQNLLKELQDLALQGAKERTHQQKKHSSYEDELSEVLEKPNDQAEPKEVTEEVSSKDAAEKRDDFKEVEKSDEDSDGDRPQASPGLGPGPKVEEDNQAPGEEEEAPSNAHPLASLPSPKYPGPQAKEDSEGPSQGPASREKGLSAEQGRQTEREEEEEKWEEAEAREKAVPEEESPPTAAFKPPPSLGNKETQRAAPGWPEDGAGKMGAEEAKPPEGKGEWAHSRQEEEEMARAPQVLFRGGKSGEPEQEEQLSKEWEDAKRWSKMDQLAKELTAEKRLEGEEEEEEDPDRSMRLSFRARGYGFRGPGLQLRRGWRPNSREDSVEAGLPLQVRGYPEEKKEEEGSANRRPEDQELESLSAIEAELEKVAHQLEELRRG
Description: (§1) Materials: The major granin proteins, chromogranin A (CGA), chromogranin B (CGB), and secretogranin II (SgII) were purified from secretory granules of bovine adrenal medulla as described (Park et al., 2002; Yoo, 1995; Yoo and Albanesi, 1990). Chelex 100 was from Bio-Rad (U.S.A), and other chemicals were of highest purity that is commercially available. Purified native chromogranin B (c), secretogranin II (d), and chromogranin A (b) are illustrated in FIG. 4. The flavonoids, stilbenoids, and the other test compounds used in the present experiments were obtained from MedChem Express (U.S.A.), Sigma-Aldrich (U.S.A.), and Santa-Cruz Biotech. (U.S.A.), and the purity of all the compounds tested was 98% or higher.
(§2) Aggregation Experiments: Prior to aggregation studies, it is necessary to remove metal ions that had interacted with granins during purification process from granins through extensive treatments with chelating agents such as Chelex 100 (Bio-Rad, U.S.A) to dissociate the granin aggregates. For metal-induced aggregation studies, Chelex 100-treated CGA, CGB, or SgII in 2 mM MOPS, pH 7.4, was titrated with concentrated metal ions such as CuCl2, FeCl2, and ZnCl2. Aggregation was monitored by measuring the turbidity change with a Beckman DU640 uv/vis spectrophotometer. All the measurements were done at 24° C.
(§3) Materials: The major granin proteins, chromogranin A (CGA), chromogranin B (CGB), and secretogranin II (SgII) were purified from secretory granules of bovine adrenal medulla as described (Park et al., 2002; Yoo, 1995; Yoo and Albanesi, 1990). Chelex 100 was from Bio-Rad, and other chemicals were of highest purity that is commercially available.
as §2, with “100” for “100 (Bio-Rad, U.S.A)”, “Beckman” for “Beckman DU640 uv/vis”

[2] = biological target: T2, chromogranin B (CGB) (Bos taurus, UniProt P23389); assay: Metal-induced chromogranin B aggregation (turbidity); type: biochemical, bovine; details: 1 μM compound, pH 7.4; for Cu2+-induced chromogranin B aggregation / Fe2+-induced chromogranin B aggregation: chromogranin B 0.005 mg/ml (0.06 μM)
T2 construct: from tissue; host or cells: secretory granules of bovine adrenal medulla
T2 sequence (P23389 21-646): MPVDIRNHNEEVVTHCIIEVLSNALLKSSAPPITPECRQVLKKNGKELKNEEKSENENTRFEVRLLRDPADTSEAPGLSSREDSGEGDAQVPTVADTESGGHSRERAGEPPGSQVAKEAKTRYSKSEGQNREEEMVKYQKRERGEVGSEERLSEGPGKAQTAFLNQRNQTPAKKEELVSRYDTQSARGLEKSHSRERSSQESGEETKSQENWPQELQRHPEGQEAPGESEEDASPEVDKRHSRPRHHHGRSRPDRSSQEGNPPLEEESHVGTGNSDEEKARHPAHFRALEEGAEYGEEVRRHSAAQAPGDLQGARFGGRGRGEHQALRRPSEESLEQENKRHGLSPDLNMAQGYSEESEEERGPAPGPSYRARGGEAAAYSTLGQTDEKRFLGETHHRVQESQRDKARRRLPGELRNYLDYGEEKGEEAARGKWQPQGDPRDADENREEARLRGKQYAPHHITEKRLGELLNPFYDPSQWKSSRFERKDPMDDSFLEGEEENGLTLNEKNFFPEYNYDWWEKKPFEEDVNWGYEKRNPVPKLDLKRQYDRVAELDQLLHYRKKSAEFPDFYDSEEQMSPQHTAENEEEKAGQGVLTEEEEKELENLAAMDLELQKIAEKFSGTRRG
Description: as §1, §2, §3
as §2, with “100” for “100 (Bio-Rad, U.S.A)”, “Beckman” for “Beckman DU640 uv/vis”

[3] = biological target: T3, secretogranin II (SgII) (Bos taurus, UniProt P20616); assay: Metal-induced secretogranin II aggregation (turbidity); type: biochemical, bovine; details: 1 μM compound, pH 7.4
T3 construct: from tissue; host or cells: secretory granules of bovine adrenal medulla
T3 sequence (P20616 31-613): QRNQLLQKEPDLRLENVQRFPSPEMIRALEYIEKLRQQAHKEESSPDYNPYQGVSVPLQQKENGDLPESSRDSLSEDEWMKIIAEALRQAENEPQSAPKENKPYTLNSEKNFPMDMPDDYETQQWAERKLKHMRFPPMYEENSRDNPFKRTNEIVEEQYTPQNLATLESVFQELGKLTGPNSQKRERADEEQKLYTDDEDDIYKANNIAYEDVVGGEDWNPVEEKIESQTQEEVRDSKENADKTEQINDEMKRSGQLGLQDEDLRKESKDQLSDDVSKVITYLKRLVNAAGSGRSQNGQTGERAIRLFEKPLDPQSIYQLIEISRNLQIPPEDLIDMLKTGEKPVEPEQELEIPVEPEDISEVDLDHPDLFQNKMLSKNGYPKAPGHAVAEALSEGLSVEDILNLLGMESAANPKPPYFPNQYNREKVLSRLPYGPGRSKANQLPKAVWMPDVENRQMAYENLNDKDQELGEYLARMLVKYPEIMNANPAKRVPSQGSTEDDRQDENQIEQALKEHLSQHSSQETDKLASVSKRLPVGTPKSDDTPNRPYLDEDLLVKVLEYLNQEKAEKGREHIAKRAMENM
Description: as §1, §2, §3
as §2, with “100” for “100 (Bio-Rad, U.S.A)”, “Beckman” for “Beckman DU640 uv/vis”

[4] = biological target: T4, chromogranin B (Bos taurus, UniProt P23389); assay: Dynamic light scattering, hydrodynamic state of chromogranin B; type: biochemical, bovine; details: chromogranin B 0.5 mg/ml (6 μM); 0.2 mM compound; 0.2 mM Fe2+; pH 7.4
T4 construct: from tissue; host or cells: secretory granules of bovine adrenal medulla
T4 sequence (P23389 21-646): T2 sequence (P23389 21-646)
Description: Molecular dynamic light scattering: To determine whether granins are in a monomer-to-oligomer state or in high molecular weight aggregate states in different solution conditions, dynamic light scattering experiments of granins were carried out with a DynaPro NanoStar of Wyatt Technology (Santa Barbara, Calif.) at 24° C., and the results were analyzed by a program (Dynamics 7.5.0) provided by the company.

[5] = tested on: PC12 cells; assay: MTT cell toxicity assay, granin plus Cu2+ toxicity; type: cell-based; details: 0.1 μM chromogranin A, 0.06 μM chromogranin B, 0.07 μM secretogranin II, 20 μM Cu2+, 1 μM compound
Description: MTT cell toxicity assay: Cell toxicity assays were done using MTT cell proliferation assay kits from Invitrogen (U.S.A.) and 50,000 PC12 cells/well as described (Cheruvara et al., 2015; Shearman et al., 1994). The assays are designed to detect the level of MTT dye reduction by cells, and the resulting color changes at 570 nm are used as an indicator of cell viability (health). The healthier the cells the higher the color changes.

[6] = secretogranin II 0.005 mg/ml (0.07 μM)

- Fe2+-induced chromogranin A aggregation [1]: completely suppressed
- Zn2+-induced chromogranin A aggregation [1]: mostly suppressed
Compound: COc1cc(OC)c2c(=O)cc(-c3ccccc3)oc2c1 [5,7-dimethoxyflavone]

- Zn2+-induced chromogranin B aggregation ([2]; chromogranin B 0.005 mg/ml): mostly suppressed
- Cu2+-induced chromogranin A aggregation [1]: completely suppressed
Compound: O=c1cc(-c2ccc(O)cc2)oc2cc(O)cc(O)c12 [apigenin]

- Fe2+-induced secretogranin II aggregation ([3]; secretogranin II 0.01 mg/ml (0.14 μM)): completely suppressed
- chromogranin B in large aggregate state [4]: 5.3%
- chromogranin B remaining in low molecular weight oligomer state [4]: 94.7%
- Cu2+-induced chromogranin B aggregation [2]: mostly suppressed
Compound: O=c1cc(-c2ccccc2)oc2cc(O)c(O)c(O)c12 [baicalein]

- Fe2+-induced secretogranin II aggregation [3, 6]: significantly suppressed
- Cu2+-induced chromogranin A aggregation [1]: mostly suppressed
Compound: Nc1ncnc2c1ncn2[C@@H]1O[C@H](CO)C[C@H]1O [cordycepin]

- Fe2+-induced secretogranin II aggregation [3, 6]: completely suppressed
- Fe2+-induced chromogranin A aggregation [1]: completely suppressed
Compound: O=c1c(O)c(-c2ccc(O)c(O)c2)oc2cc(O)ccc12 [fisetin]

- Cu2+-induced secretogranin II aggregation [3, 6]: mostly suppressed
- Fe2+-induced chromogranin A aggregation [1]: completely suppressed
Compound: O=c1c(O)c(-c2ccc(O)cc2)oc2cc(O)cc(O)c12 [kaempferol]

- Fe2+-induced secretogranin II aggregation [3, 6]: mostly inhibited
- Fe2+-induced chromogranin B aggregation [2]: mostly inhibited
Compound: O=c1cc(-c2ccc(O)c(O)c2)oc2cc(O)cc(O)c12 [luteolin]
- granin-induced toxicity (cell toxicity, MTT) [5]: virtually stopped

- Fe2+-induced chromogranin A aggregation [1]: completely suppressed
- Zn2+-induced chromogranin A aggregation [1]: mostly suppressed
Compound: O=c1c(O)c(-c2ccc(O)cc2O)oc2cc(O)cc(O)c12 [morin]

- Fe2+-induced chromogranin B aggregation [2]: completely suppressed
- Fe2+-induced chromogranin A aggregation [1]: completely suppressed
Compound: O=c1c(O)c(-c2cc(O)c(O)c(O)c2)oc2cc(O)cc(O)c12 [myricetin]

Compound: O=c1c(O)c(-c2ccc(O)c(O)c2)oc2cc(O)cc(O)c12 [quercetin]
- Fe2+-induced secretogranin II aggregation [3, 6]: completely suppressed
- Cu2+-induced chromogranin B aggregation [2]: completely suppressed

- Zn2+-induced secretogranin II aggregation [3, 6]: significantly suppressed
- Fe2+-induced chromogranin B aggregation [2]: mostly suppressed
Compound: Oc1ccc(C=Cc2cc(O)cc(O)c2)cc1 [resveratrol]

- Fe2+-induced chromogranin B aggregation [2]: completely suppressed
- Cu2+-induced chromogranin A aggregation [1]: mostly suppressed
Compound: COc1ccc(-c2cc(=O)c3c(OC)c(OC)c(OC)c(OC)c3o2)cc1 [tangeretin]

- Fe2+-induced secretogranin II aggregation [3, 6]: significantly suppressed
- Fe2+-induced chromogranin A aggregation [1]: significantly suppressed
Compound: COc1cc2ncnc(Nc3cccc(Cl)c3)c2cc1OC [tyrphostin AG1478]

Compound: epigallocatechin 3-gallate [EGCG]
- Cu2+-induced secretogranin II aggregation [3, 6]: mostly suppressed
- Fe2+-induced secretogranin II aggregation [3, 6]: completely suppressed
